{"source": "patent US6593306B1", "about": "“Methods for modulation and inhibition of telomerase” (Board of Regents, The University of Texas Systems, priority 1995, dated 2003)", "key": {"human telomerase": {"target": "T1, human telomerase (Homo sapiens, UniProt O14746)", "T1 construct": "telomerase in S100 extracts of transformed human fetal kidney tumor 293 cells (a processive telomerase); endogenous in cells; host or cells: human cells, (S100 extract)", "T1 sequence (O14746 whole entry)": "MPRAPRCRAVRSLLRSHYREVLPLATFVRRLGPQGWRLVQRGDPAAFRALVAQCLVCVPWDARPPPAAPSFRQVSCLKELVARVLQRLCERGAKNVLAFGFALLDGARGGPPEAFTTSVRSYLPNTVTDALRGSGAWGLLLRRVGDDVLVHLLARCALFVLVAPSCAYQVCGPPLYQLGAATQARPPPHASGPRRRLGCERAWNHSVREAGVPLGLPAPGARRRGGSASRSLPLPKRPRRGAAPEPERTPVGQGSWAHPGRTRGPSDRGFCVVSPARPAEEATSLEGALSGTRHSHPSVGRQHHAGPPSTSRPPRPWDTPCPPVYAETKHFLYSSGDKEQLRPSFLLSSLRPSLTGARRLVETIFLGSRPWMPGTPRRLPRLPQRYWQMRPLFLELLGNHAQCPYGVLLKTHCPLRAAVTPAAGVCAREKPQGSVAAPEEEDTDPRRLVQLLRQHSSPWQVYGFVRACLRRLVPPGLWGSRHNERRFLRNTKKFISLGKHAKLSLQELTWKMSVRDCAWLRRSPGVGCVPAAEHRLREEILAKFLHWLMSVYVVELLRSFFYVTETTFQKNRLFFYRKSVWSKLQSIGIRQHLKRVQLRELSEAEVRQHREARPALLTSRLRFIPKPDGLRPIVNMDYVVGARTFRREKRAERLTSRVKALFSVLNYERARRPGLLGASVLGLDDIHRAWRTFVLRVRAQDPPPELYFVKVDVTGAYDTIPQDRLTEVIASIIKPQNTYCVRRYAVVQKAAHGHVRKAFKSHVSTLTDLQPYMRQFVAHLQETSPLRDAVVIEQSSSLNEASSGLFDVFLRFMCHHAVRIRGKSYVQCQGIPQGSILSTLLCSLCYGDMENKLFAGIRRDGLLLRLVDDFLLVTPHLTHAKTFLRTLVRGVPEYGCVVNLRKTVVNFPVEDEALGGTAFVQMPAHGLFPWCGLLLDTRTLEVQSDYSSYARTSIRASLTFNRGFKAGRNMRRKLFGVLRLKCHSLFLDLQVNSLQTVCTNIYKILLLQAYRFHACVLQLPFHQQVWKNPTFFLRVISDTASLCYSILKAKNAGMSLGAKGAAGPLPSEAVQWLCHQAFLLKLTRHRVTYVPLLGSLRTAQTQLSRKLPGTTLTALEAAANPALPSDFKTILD", "T1 sequence (O60832 whole entry partner)": "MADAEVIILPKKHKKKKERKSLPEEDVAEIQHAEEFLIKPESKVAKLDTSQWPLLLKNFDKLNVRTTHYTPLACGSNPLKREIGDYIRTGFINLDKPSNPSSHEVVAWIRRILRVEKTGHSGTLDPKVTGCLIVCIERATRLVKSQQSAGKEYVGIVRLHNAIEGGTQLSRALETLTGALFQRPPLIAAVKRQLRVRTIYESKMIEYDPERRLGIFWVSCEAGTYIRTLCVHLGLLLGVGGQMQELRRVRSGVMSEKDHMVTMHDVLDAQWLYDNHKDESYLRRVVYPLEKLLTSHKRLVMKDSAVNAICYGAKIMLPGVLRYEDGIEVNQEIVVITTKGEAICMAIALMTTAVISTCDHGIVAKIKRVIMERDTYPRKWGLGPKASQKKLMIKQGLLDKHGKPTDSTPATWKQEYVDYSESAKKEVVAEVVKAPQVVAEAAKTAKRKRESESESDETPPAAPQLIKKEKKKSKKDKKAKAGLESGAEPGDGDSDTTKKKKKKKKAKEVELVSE", "T1 sequence (Q9NPE3 whole entry partner)": "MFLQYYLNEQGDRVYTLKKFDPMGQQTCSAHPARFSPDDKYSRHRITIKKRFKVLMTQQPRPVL", "T1 sequence (Q9NX24 whole entry partner)": "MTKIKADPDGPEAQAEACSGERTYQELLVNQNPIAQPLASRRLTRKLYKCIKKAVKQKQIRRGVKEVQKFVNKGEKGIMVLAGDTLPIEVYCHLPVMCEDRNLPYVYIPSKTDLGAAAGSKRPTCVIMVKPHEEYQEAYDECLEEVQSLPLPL", "T1 sequence (Q9NY12 whole entry partner)": "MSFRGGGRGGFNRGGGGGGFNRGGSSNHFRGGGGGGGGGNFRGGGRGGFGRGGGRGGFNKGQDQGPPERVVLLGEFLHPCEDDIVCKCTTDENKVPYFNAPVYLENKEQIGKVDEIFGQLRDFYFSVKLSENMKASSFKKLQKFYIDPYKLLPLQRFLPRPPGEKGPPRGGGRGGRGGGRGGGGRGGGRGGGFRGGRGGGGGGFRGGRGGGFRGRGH", "assay": "Cell-free telomerase inhibition, conventional or modified assay not stated", "format": "biochemical"}, "UA-21 telomerase": {"target": "T2, UA-21 telomerase (Cricetulus griseus, UniProt A0A9J7FFE8)", "T2 construct": "non-processive telomerase activity in the S100 extracts of HeLa-S3, UA-21 and WI38 cell lines; endogenous in cells; host or cells: UA-21 cells (CHO subline), S100 extract", "T2 sequence (A0A9J7FFE8 1-1129)": "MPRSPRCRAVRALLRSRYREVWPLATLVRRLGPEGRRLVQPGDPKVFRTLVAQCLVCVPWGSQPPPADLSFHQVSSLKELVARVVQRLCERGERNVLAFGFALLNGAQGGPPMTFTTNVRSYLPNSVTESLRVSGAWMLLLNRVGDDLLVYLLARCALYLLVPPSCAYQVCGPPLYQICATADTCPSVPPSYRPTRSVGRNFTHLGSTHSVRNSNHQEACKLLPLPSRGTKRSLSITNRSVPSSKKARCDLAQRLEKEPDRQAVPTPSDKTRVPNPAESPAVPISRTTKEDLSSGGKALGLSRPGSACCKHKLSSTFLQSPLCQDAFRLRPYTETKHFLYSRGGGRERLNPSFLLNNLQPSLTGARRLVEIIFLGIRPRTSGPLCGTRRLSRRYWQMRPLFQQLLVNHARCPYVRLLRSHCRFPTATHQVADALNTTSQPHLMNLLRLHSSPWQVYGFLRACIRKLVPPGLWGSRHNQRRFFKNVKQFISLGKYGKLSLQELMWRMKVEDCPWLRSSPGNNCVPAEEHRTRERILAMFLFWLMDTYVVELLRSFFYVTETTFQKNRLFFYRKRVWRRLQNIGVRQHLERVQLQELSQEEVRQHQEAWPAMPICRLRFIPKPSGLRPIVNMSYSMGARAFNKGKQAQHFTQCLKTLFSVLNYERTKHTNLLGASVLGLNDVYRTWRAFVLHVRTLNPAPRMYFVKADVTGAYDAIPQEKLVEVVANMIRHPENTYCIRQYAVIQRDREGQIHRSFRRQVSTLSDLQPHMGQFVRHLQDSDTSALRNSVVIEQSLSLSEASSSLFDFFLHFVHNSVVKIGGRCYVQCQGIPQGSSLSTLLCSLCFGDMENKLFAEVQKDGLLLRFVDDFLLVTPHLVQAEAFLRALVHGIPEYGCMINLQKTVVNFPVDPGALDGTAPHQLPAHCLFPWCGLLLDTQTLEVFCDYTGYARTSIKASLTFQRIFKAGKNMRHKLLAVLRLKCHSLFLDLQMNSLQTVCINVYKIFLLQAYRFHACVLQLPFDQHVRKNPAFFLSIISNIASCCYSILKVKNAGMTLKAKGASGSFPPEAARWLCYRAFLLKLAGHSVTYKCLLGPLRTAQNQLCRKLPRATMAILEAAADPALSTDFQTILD", "assay": "Telomerase assay with CHO non-processive telomerase", "format": "biochemical, Chinese hamster", "method": "Selected nucleoside triphosphates were tested in one or both of the “conventional” or “modified” telomerase assays described in Methods using the human processive and the CHO non-processive telomerases. Initially, three chain-terminators were selected: 2′,3′-dideoxythymidine triphosphate (ddTTP), 3′-fluoro-2′,3′-dideoxythymidine triphosphate (F-ddTTP), and 3′-azido-2′-, 3′-dideoxythymidine triphosphate (AZ-ddTTP) as prototype agents to investigate whether they could inhibit telomerase activity. The three compounds are dTTP analogs without a 3′-OH group for subsequent chain elongation. They may either incorporate into the telomere sequence and terminate further chain elongation or compete directly with dTTP for the substrate binding site in the telomerase reaction. In either case, telomerase activity is inhibited.\nThe DNA ladder bands were quantitated using a Molecular Dynamic Personal Densitometer. The concentration of AZ-ddTTP required to inhibit the telomerase activity by 50% of the control is estimated to be 500 and 750 μM against the 293 and UA-21 telomerase, respectively. In contrast, the nucleoside AZT (3′-azidothymidine), at 2 mM, has a small effect on the telomerase activity."}, "[1]": {"target": "T3, human 293 cell telomerase (Homo sapiens, UniProt O14746)", "T3 construct": "with 20 μl of S100 enzyme extract; endogenous in cells; host or cells: 293 cells (transformed human embryonic kidney), S100 extract", "T3 sequence (O14746 whole entry)": "as the sequence (O14746 whole entry) above", "T3 sequence (O60832 whole entry partner)": "as the sequence (O60832 whole entry partner) above", "T3 sequence (Q9NPE3 whole entry partner)": "as the sequence (Q9NPE3 whole entry partner) above", "T3 sequence (Q9NX24 whole entry partner)": "as the sequence (Q9NX24 whole entry partner) above", "T3 sequence (Q9NY12 whole entry partner)": "as the sequence (Q9NY12 whole entry partner) above", "assay": "Conventional telomerase assay (32P-dGTP as radiolabel substrate)", "format": "biochemical", "settings": "293 cells telomerase; competing dTTP 1-2 mM; inhibitor 0 to 2 mM"}, "[2]": {"system": "G-quartet structure of human telomeric DNA sequence", "assay": "G-quartet formation by imino proton NMR", "format": "physicochemical", "settings": "KCl-containing buffer; imino proton resonances 10-12 ppm", "method": "The oligodeoxyribonucleotide having the sequence d(GGTTAGGGTTAG), corresponding to the human telomeric DNA sequence, was prepared using standard automated solid phase synthesis techniques employing a ten micromole synthesis on an Applied Biosystems Model 381A automated DNA synthesizer. Solid support and reagents were purchased from Biogenex, Glen Research, or Applied Biosystems, South San Francisco, Calif. The DNA sample was deprotected in concentrated NH4OH at 55° C. overnight, purified by reverse phase HPLC on a C18 column (Dynamax-300A) and then dialyzed extensively against deionized water. NMR samples were prepared by reconstituting lyophilized DNA in 90% H2O/10% D2O containing 1 mM EDTA/50 mM potassium phosphate and either 100 mM KCl or 100 mM NaCl. NMR experiments were carried out on a Bruker AMX 500 MHz spectrophotometer using a 1-1 echo pulse sequence with maximum excitation centered as 12.0 ppm.\nAfter cleavage from the solid support, deprotection and purification, the oligodeoxyribonucleotide is dissolved in 90% H2O/10% D2O containing 100 mM KCl/1 mM EDTA/50 mM potassium phosphate. The imino NMR spectrum of this oligodeoxyribonucleotide is acquired at various temperatures from about 0° C.-80° C. and the presence of the diagnostic G-quartet imino is indicated by the presence of resonances at 10-12 ppm."}}, "note": "[7dzG] = 7-deaza-2'-deoxyguanosine (G*)", "data": [{"compound": "Cc1cn([C@H]2C[C@H](F)[C@@H](COP(=O)(O)OP(=O)(O)OP(=O)(O)O)O2)c(=O)[nH]c1=O", "note": "[NA002, 3′-Fluoro-3′-Deoxythymidine-5′-Triphosphate]", "values": [{"measurement": "effect against the processive human telomerase", "setting": "human telomerase; concentration not given", "value": "little effect"}, {"measurement": "inhibition of the non-processive CHO telomerase", "setting": "UA-21 telomerase; concentration not given", "value": "completely"}]}, {"compound": "Cc1cn([C@H]2C[C@H](N=[N+]=[N-])[C@@H](CO[P@](=O)(O)O[P@](=O)(O)OP(=O)(O)O)O2)c(=O)[nH]c1=O", "note": "[NA010, 3′-Azido-3′-Deoxythymidine-5′-Triphosphate]", "values": [{"measurement": "IC50", "setting": "[1]", "value": "~200", "unit": "µM"}, {"measurement": "IC50", "setting": "human telomerase; 293 telomerase, estimated from densitometry, read-out: concentration required to inhibit the telomerase activity by 50% of the control", "value": "~500", "unit": "µM"}, {"measurement": "IC50", "setting": "UA-21 telomerase; UA-21 telomerase, estimated from densitometry, read-out: concentration required to inhibit the telomerase activity by 50% of the control", "value": "~750", "unit": "µM"}]}, {"compound": "d(GGTTAGG*GTTAG): oligodeoxyribonucleotide where G* represents the 7-deaza-2′-deoxyguanosine residue (DNA GGTTAGGGTTAG; DNA, [7dzG] at 7, backbone not given here)", "values": [{"measurement": "temperature up to which G-quartet structure forms", "setting": "[2]", "value": "≤ 20", "unit": "°C"}]}, {"compound": "d(GGTTAGGGTTAG): oligodeoxyribonucleotide corresponding to the human telomeric DNA sequence (DNA, backbone not given here) [reference compound]", "values": [{"measurement": "temperature up to which G-quartet structure forms", "setting": "[2]", "value": "≥ 70", "unit": "°C"}]}]}
